Results: PubChem BioAssay (NCI)
Several values for one entry are separate records, joined by “and”; a condition that tells them apart may be missing. Equal entries are not always repeated.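 Briefly, cells in 96-well plates were exposed to five compound concentrations for 48 h, and endpoints were estimated by linear interpolation. GI50 = concentration required for 50% inhibition of growth. TGI: concentration producing complete growth inhibition.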

How the values were obtained:
Assay in all cases: NCI anticancer screen, dose series, 48 h
TK-10 renal = system: TK-10 renal
MALME-3M melanoma = system: MALME-3M melanoma
COLO 205 colon = system: COLO 205 colon
CCRF-CEM leukemia = system: CCRF-CEM leukemia
NCI-H522 lung = system: NCI-H522 lung
SN12C renal = system: SN12C renal
HCT-15 colon = system: HCT-15 colon
K-562 leukemia = system: K-562 leukemia
HT29 colon = system: HT29 colon
BT-549 breast = system: BT-549 breast

SMILES	TGI (TK-10 renal)	TGI (MALME-3M melanoma)	TGI (COLO 205 colon)	TGI (CCRF-CEM leukemia)	TGI (NCI-H522 lung)	TGI (SN12C renal)	TGI (HCT-15 colon)	TGI (K-562 leukemia)	GI50 (TK-10 renal)	GI50 (MALME-3M melanoma)	GI50 (COLO 205 colon)	GI50 (HT29 colon)	TGI (HT29 colon)	GI50 (CCRF-CEM leukemia)	GI50 (NCI-H522 lung)	GI50 (BT-549 breast)	TGI (BT-549 breast)	GI50 (SN12C renal)	GI50 (HCT-15 colon)	GI50 (K-562 leukemia)
O=C(Nc1ccc(Cl)cc1Cl)/C(Cl)=C1/Sc2ccccc2NC1=O	> 100 µM	77.9 µM	> 100 µM	83.4 µM	49 µM	> 100 µM	> 100 µM	> 100 µM	–	–	–	–	–	–	–	–	–	–	–	–
O=CNc1ccc2c(c1)Cc1cc([N+](=O)[O-])ccc1-2	> 100 µM	> 100 µM	> 100 µM	> 100 µM	7.56 µM	> 100 µM	> 100 µM	–	10.2 µM	5.97 µM	2.87 µM	4.5 µM	> 100 µM	1.31 µM	1.85 µM	2.93 µM	> 100 µM	> 26.2 µM	2.86 µM	–
COC(=O)C12OCC34C(CC5C(C)=CC(=O)C(O)C5(C)C3C(O)C1O)OC(=O)C(OC(=O)CC(C)C)C24 (configuration not stated)	0.16 µM and 0.477 µM	–	–	–	0.00118 µM	–	–	–	0.0166 µM	< 0.0356 µM	0.425 µM and 0.05 µM	0.0588 µM	–	< 0.0503 µM and 0.05 µM	–	–	0.00549 µM	0.0829 µM and 0.05 µM	0.0565 µM and 0.05 µM	–
C=C1CCC2C(C)(CO)C(O)CCC2(C)C1CC(O)C1=CCOC1=O (configuration not stated)	> 100 µM	> 100 µM	> 100 µM	84.3 µM	20.3 µM	> 100 µM	> 100 µM	> 100 µM	–	–	–	–	> 100 µM	–	–	–	–	–	–	–
COC(=O)CCC(=O)C(C#N)c1ccc(Cl)cc1Cl (configuration not stated)	> 100 µM	> 100 µM	–	> 100 µM	> 100 µM	> 100 µM	> 100 µM	> 100 µM	–	–	–	–	> 100 µM	–	–	–	–	–	–	–
C[C@H]1[C@H](C)CC[C@]2(C(=O)O)CC[C@]3(C)C(=CC[C@@H]4[C@@]5(C)CC[C@H](OC(=O)/C=C\c6ccc(O)cc6)C(C)(C)[C@@H]5CC[C@]43C)[C@H]12	4.66 µM	13.2 µM	14.8 µM	–	> 100 µM	6.76 µM	12.7 µM	–	1.15 µM	2.51 µM	3.85 µM	4.87 µM	19.5 µM	–	5.58 µM	9.58 µM	31.2 µM	1.67 µM	3.08 µM	–
CCOCC[P+](c1ccccc1)(c1ccccc1)c1ccccc1	–	61.4 µM	26.5 µM	> 100 µM	50.9 µM	> 100 µM	> 100 µM	> 100 µM	–	10.3 µM	11.7 µM	16.2 µM	96.3 µM	23 µM	11.9 µM	–	–	24.6 µM	73.8 µM	14.9 µM
CC1=C(C(=O)Nc2ccc(Cl)c(Cl)c2)C(c2cccc(O)c2)NC(=S)N1 (configuration not stated)	–	–	14.6 µM	–	25.2 µM	20.1 µM	> 50 µM	37.3 µM	–	–	7.09 µM	–	–	–	12 µM	7.97 µM	19.3 µM	8.66 µM	21.8 µM	10.8 µM
C/C(CC(=O)Nc1ccc([N+](=O)[O-])cc1)=N/N=C(N)N	> 100 µM	> 100 µM	> 100 µM	> 100 µM	> 100 µM	–	–	> 100 µM	–	–	–	–	> 100 µM	–	–	–	–	–	–	–
Cc1cc2c(=O)cc(-c3ccc(C(=O)O)cc3)oc2c(C(=O)O)c1C	> 100 µM	> 100 µM	> 100 µM	> 100 µM	> 100 µM	> 100 µM	> 100 µM	> 100 µM	–	–	–	–	> 100 µM	–	–	–	–	–	–	–
COc1ccc(OC)c2c3c(ncc12)-c1cc2c(cc1C3)OCO2	> 100 µM	–	> 100 µM	> 100 µM	> 100 µM	> 100 µM	> 100 µM	> 100 µM	> 100 µM	–	> 100 µM	–	–	> 100 µM	52.3 µM	–	–	> 100 µM	3.87 µM	24.6 µM
COc1ccc(OC)c(/C=C/c2cnnc3ccccc23)c1	> 10 µM	–	> 10 µM	> 10 µM	> 10 µM	> 10 µM	> 10 µM	> 10 µM	–	–	–	–	> 10 µM	–	–	–	–	–	–	–
O=C(CCc1cc(-c2ccco2)n(-c2ccc([N+](=O)[O-])cc2[N+](=O)[O-])n1)Nc1ccccc1	–	94.2 µM	> 100 µM	> 100 µM	> 100 µM	> 100 µM	> 100 µM	> 100 µM	–	–	–	–	> 100 µM	–	–	–	–	–	–	–
O=[N+]([O-])c1ccc(C2N3CCCCC3[C@@H]3c4[nH]c5ccccc5c4CCN23)cc1 (some centres not stated)	51.1 µM	–	38 µM	64.4 µM	–	32.3 µM	59.1 µM	> 100 µM	–	–	–	–	16 µM	–	–	–	–	–	–	–
NC(CCCNCc1ccccc1O)C(=O)O (configuration not stated)	> 100 µM	> 100 µM	> 100 µM	> 100 µM	> 100 µM	> 100 µM	> 100 µM	> 100 µM	–	–	–	–	> 100 µM	–	–	–	–	–	–	–
COC(=O)c1cc(O)ccc1NC(=O)c1ccc(O)cc1	> 100 µM	> 100 µM	> 100 µM	> 100 µM	> 100 µM	–	> 100 µM	> 100 µM	–	–	–	–	> 100 µM	–	–	–	–	–	–	–
C/C(CN1C(=O)c2ccccc2C1=O)=N\NS(C)(=O)=O	> 100 µM	> 100 µM	> 100 µM	> 100 µM	> 100 µM	> 100 µM	> 100 µM	> 100 µM	–	–	–	–	> 100 µM	–	–	–	–	–	–	–
COc1ccc2oc(-c3ccc(Cl)cc3)c(N3CCN(C)CC3)c2c1	3.58 µM	–	3.62 µM	4.06 µM	3.91 µM	10.2 µM	3.24 µM	> 100 µM	1.83 µM	–	1.68 µM	1.42 µM	3.32 µM	1.71 µM	1.9 µM	6.39 µM	20.7 µM	2.52 µM	1.62 µM	3.38 µM
CCOC(=O)c1c2c(n3cccc(F)c13)C(=O)c1ncccc1C2=O	27.2 µM	6.77 µM	7.2 µM	37.5 µM	3.77 µM	17.6 µM	12.2 µM	> 100 µM	0.216 µM	0.541 µM	1.27 µM	1.34 µM	5.42 µM	3.71 µM	0.394 µM	–	–	0.457 µM	0.0247 µM	0.357 µM
